ChEMBL document CHEMBL1133620, “Selective cyclooxygenase-2 inhibitors: heteroaryl modified 1,2-diarylimidazoles are potent, orally active antiinflammatory agents” (J Med Chem, 2000)

How the values were obtained:
[1] = molecular target: Prostaglandin G/H synthase 1 (Homo sapiens, UniProt P23219)
Rattus norvegicus [2] = organism: Rattus norvegicus; assay: animal or person; conditions: read-out: Inhibition
Rattus norvegicus [3] = organism: Rattus norvegicus; assay: animal or person; format: functional
Rattus norvegicus [4] = organism: Rattus norvegicus; assay: animal or person; format: functional; remark: listed apart in the source
Rattus norvegicus [5] = organism: Rattus norvegicus; assay: animal or person; format: functional; remark: listed apart in the source
Rattus norvegicus [6] = organism: Rattus norvegicus; conditions: in vivo, po, 100 mg/kg
Rattus norvegicus [7] = organism: Rattus norvegicus; conditions: in vivo, po, 100 mg/kg; remark: listed apart in the source
in vivo [8] = conditions: rat, iv, 10 mg/kg
Rattus norvegicus [9] = organism: Rattus norvegicus; conditions: in vivo, po, 100 mg/kg; remark: listed apart in the source
Rattus norvegicus [10] = organism: Rattus norvegicus; conditions: in vivo, po, 100 mg/kg; remark: listed apart in the source
Rattus norvegicus [11] = organism: Rattus norvegicus; conditions: in vivo, po, 100 mg/kg; remark: listed apart in the source
in vivo [12] = conditions: rat, iv, 10 mg/kg; remark: listed apart in the source
Homo sapiens [13] = organism: Homo sapiens; assay: tissue or blood
Homo sapiens [14] = organism: Homo sapiens; assay: tissue or blood; remark: listed apart in the source
Rattus norvegicus [15] = organism: Rattus norvegicus; conditions: in vivo, po, 16 mg/kg
Rattus norvegicus [16] = organism: Rattus norvegicus; conditions: in vivo, po, 16 mg/kg; remark: listed apart in the source
in vivo [17] = conditions: rat, iv, 10 mg/kg; remark: listed apart in the source
Rattus norvegicus [18] = organism: Rattus norvegicus; conditions: in vivo, po, 100 mg/kg; remark: listed apart in the source
in vivo [19] = conditions: rat, iv, 2 mg/kg
[20] = Rattus norvegicus, read-out: ED50

Sequence of Prostaglandin G/H synthase 1 (P23219 whole entry): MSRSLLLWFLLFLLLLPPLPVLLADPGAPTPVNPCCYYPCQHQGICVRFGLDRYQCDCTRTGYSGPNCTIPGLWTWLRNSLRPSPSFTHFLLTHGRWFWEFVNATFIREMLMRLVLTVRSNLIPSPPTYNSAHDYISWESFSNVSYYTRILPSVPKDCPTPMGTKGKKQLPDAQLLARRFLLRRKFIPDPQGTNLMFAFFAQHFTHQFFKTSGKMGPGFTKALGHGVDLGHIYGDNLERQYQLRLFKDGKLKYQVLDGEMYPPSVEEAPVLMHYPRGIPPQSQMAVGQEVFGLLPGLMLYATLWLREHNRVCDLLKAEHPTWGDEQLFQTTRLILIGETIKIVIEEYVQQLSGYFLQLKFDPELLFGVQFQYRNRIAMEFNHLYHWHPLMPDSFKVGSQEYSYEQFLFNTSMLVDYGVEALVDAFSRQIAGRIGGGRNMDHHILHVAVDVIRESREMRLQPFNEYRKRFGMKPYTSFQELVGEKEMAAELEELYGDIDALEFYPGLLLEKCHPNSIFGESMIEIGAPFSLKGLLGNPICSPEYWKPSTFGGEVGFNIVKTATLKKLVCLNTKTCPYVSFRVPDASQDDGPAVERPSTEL

Row | Compound | IC50 [1] [µM] | inhibition in vivo at 2 mg/kg (Rattus norvegicus [2]) [%] | also measured
1 | Cc1nc(-c2nc(C(F)(F)F)cn2-c2ccc(S(C)(=O)=O)cc2)co1 | > 100 | 0 | 
2 | Cc1ncccc1-c1nc(C(F)(F)F)cn1-c1ccc(S(N)(=O)=O)cc1 |  | 100 | ED50 (Rattus norvegicus [3]): 18 mg/kg; ED50 (Rattus norvegicus [4]): 1 mg/kg; ED50 (Rattus norvegicus [5]; [20]): 6.9 mg/kg; No. of animals with damage (Rattus norvegicus [6]): 0; No. of animals with damage (Rattus norvegicus [7]): 0; half-life (in vivo [8]): 4.85 h
3 | Cc1ccc(-c2nc(C(F)(F)F)cn2-c2ccc(S(N)(=O)=O)cc2)nc1 | 302 | 100 | 
4 | NS(=O)(=O)c1ccc(-n2cc(C(F)(F)F)nc2-c2cncc(Br)c2)cc1 |  | 26 | 
5 | Cc1ccc(-c2nc(C(F)(F)F)cn2-c2ccc(S(C)(=O)=O)cc2)cn1 |  | 93 | ED50 (Rattus norvegicus [3]): 33 mg/kg; ED50 (Rattus norvegicus [4]): 0.2 mg/kg; ED50 (Rattus norvegicus [5]; [20]): 41 mg/kg
6 | CS(=O)(=O)c1ccc(-n2cc(C(F)(F)F)nc2-c2cc3ccccc3cn2)cc1 | 32 |  | 
7 | NS(=O)(=O)c1ccc(-n2cc(C(F)(F)F)nc2-c2cccs2)cc1 |  | 95 | 
8 | Cc1cncc(-c2nc(C(F)(F)F)cn2-c2ccc(S(C)(=O)=O)cc2)c1 |  | 75 | 
9 | CS(=O)(=O)c1ccc(-n2cc(C(F)(F)F)nc2-c2cccc3c2OCO3)cc1 | > 100 | 11 | 
10 | COc1ccc(-c2nc(C(F)(F)F)cn2-c2ccc(S(C)(=O)=O)cc2)cn1 |  | 100 | 
11 | Cc1csc(-c2nc(C(F)(F)F)cn2-c2ccc(S(N)(=O)=O)cc2)n1 | > 1000 | 100 | ED50 (Rattus norvegicus [3]): 18.5 mg/kg; ED50 (Rattus norvegicus [4]): 0.33 mg/kg; ED50 (Rattus norvegicus [5]; [20]): 13.4 mg/kg
12 | Cc1ccncc1-c1nc(C(F)(F)F)cn1-c1ccc(S(C)(=O)=O)cc1 | > 100 |  | 
13 | Cc1ccncc1-c1nc(C(F)(F)F)cn1-c1ccc(S(N)(=O)=O)cc1 | > 100 |  | 
14 | Cc1ccc(-c2nc(C(F)(F)F)cn2-c2ccc(S(N)(=O)=O)cc2)cn1 |  | 100 | 
15 | Cc1cccc(-c2nc(C(F)(F)F)cn2-c2ccc(S(N)(=O)=O)cc2)n1 |  | 100 | ED50 (Rattus norvegicus [3]): 20.3 mg/kg; ED50 (Rattus norvegicus [4]): 0.64 mg/kg; ED50 (Rattus norvegicus [5]; [20]): 8.2 mg/kg; No. of animals with damage (Rattus norvegicus [9]): 0; No. of animals with damage (Rattus norvegicus [10]): 0
16 | COc1cncc(-c2nc(C(F)(F)F)cn2-c2ccc(S(C)(=O)=O)cc2)c1 | > 100 |  | 
17 | CS(=O)(=O)c1ccc(-n2cc(C#N)nc2-c2cccnc2)cc1 | > 100 |  | 
18 | CS(=O)(=O)c1ccc(-n2cc(C(F)(F)F)nc2-c2cccnc2)cc1 |  | 100 | ED50 (Rattus norvegicus [3]): 8.2 mg/kg; ED50 (Rattus norvegicus [4]): 0.25 mg/kg; ED50 (Rattus norvegicus [5]; [20]): 5.4 mg/kg; No. of animals with damage (Rattus norvegicus [9]): 0; No. of animals with damage (Rattus norvegicus [11]): 0; half-life (in vivo [12]): 11.6 h; IC50 (Homo sapiens [13]): 41.6 µM; IC50 (Homo sapiens [14]): 0.2 µM
19 | CS(=O)(=O)c1ccc(-n2cc(C(F)(F)F)nc2-c2cccs2)cc1 |  | 24 | 
20 | CS(=O)(=O)c1ccc(-n2cc(C(F)(F)F)nc2-c2ccccc2)cc1 |  |  | ED50 (Rattus norvegicus [5]; [20]): 0.15 mg/kg
21 | CS(=O)(=O)c1ccc(-n2cc(C(F)(F)F)nc2-c2cnc3ccccc3c2)cc1 |  | 90 | 
22 | Cc1ccnc(-c2nc(C(F)(F)F)cn2-c2ccc(S(C)(=O)=O)cc2)c1 |  | 84 | 
23 | Cc1ccsc1-c1nc(C(F)(F)F)cn1-c1ccc(S(C)(=O)=O)cc1 | > 1000 | 11 | 

Row | Compound | IC50 [1] [µM] | inhibition in vivo at 2 mg/kg (Rattus norvegicus [2]) [%] | also measured
24 | Cc1cn(-c2ccc(S(C)(=O)=O)cc2)c(-c2cccnc2)n1 | > 100 |  | 
25 | Cc1cc(-c2nc(C(F)(F)F)cn2-c2ccc(S(N)(=O)=O)cc2)no1 | > 1000 | 92 | 
26 | CS(=O)(=O)c1ccc(-n2cc(C(F)(F)F)nc2-c2cc(Br)cs2)cc1 | > 1000 | 75 | 
27 | Cc1cccnc1-c1nc(C(F)(F)F)cn1-c1ccc(S(C)(=O)=O)cc1 |  | 100 | ED50 (Rattus norvegicus [4]): 0.3 mg/kg; ED50 (Rattus norvegicus [5]): 35%
28 | CS(=O)(=O)c1ccc(-n2cc(C(F)(F)F)nc2-c2ccccn2)cc1 | > 1000 | 100 | IC50 (Homo sapiens [13]): > 10 µM; IC50 (Homo sapiens [14]): 0.24 µM
29 | NS(=O)(=O)c1ccc(-n2cc(C(F)(F)F)nc2-c2cccnc2)cc1 | > 1000 | 100 | 
30 | Cc1nc(-c2nc(C(F)(F)F)cn2-c2ccc(S(C)(=O)=O)cc2)cs1 |  | 73 | 
31 | CS(=O)(=O)c1ccc(-n2cc(C(F)(F)F)nc2-c2nccc3ccccc23)cc1 |  | 60 | 
32 | COc1ccc2c(c1)c(CC(=O)O)c(C)n2C(=O)c1ccc(Cl)cc1 [INDOMETHACIN] |  |  | ED50 (Rattus norvegicus [4]): 0.1 mg/kg; No. of animals with damage (Rattus norvegicus [15]): 6; No. of animals with damage (Rattus norvegicus [16]): 6
33 | Cc1ccccc1-c1nc(C(F)(F)F)cn1-c1ccc(S(C)(=O)=O)cc1 |  |  | ED50 (Rattus norvegicus [5]; [20]): 18 mg/kg
34 | Cc1cncc(-c2nc(C(F)(F)F)cn2-c2ccc(S(N)(=O)=O)cc2)c1 | > 1000 | 96 | ED50 (Rattus norvegicus [3]): 32 mg/kg; ED50 (Rattus norvegicus [4]): 0.67 mg/kg; ED50 (Rattus norvegicus [5]; [20]): 7.5 mg/kg; No. of animals with damage (Rattus norvegicus [9]): 0; No. of animals with damage (Rattus norvegicus [10]): 0; half-life (in vivo [17]): 4.96 h
35 | Cc1ccnc(-c2nc(C(F)(F)F)cn2-c2ccc(S(N)(=O)=O)cc2)c1 | 84 | 75 | 
36 | CS(=O)(=O)c1ccc(-n2cc(C(F)F)nc2-c2cccnc2)cc1 | > 100 |  | 
37 | Cc1ncc(-c2nc(C(F)(F)F)cn2-c2ccc(S(N)(=O)=O)cc2)s1 | > 1000 | 75 | 
38 | Cc1cccc(-c2nc(C(F)(F)F)cn2-c2ccc(S(C)(=O)=O)cc2)n1 |  | 92 | 
39 | Cc1ncccc1-c1nc(C(F)(F)F)cn1-c1ccc(S(C)(=O)=O)cc1 | > 100 | 81 | 
40 | CS(=O)(=O)c1ccc(-n2cc(CO)nc2-c2cccnc2)cc1 | > 1000 |  | 
41 | Cc1nc(-c2nc(C(F)(F)F)cn2-c2ccc(S(N)(=O)=O)cc2)cs1 |  | 100 | ED50 (Rattus norvegicus [3]): 14 mg/kg; ED50 (Rattus norvegicus [4]): 0.57 mg/kg; ED50 (Rattus norvegicus [5]; [20]): 13.4 mg/kg; No. of animals with damage (Rattus norvegicus [9]): 0; No. of animals with damage (Rattus norvegicus [18]): 0; half-life (in vivo [19]): 3.4 h
42 | Cn1cc(-c2nc(C(F)(F)F)cn2-c2ccc(S(C)(=O)=O)cc2)c2ccccc21 |  | 0 | 
43 | Cc1cccnc1-c1nc(C(F)(F)F)cn1-c1ccc(S(N)(=O)=O)cc1 |  | 100 | 
44 | Cc1ccc(-c2nc(C(F)(F)F)cn2-c2ccc(S(C)(=O)=O)cc2)nc1 |  | 97 | ED50 (Rattus norvegicus [3]): 20 mg/kg; ED50 (Rattus norvegicus [4]): 1 mg/kg
45 | NS(=O)(=O)c1ccc(-n2cc(C(F)F)nc2-c2cccnc2)cc1 | > 100 | 19 | 
46 | CS(=O)(=O)c1ccc(-n2cc(C(F)(F)F)nc2-c2cncc(Br)c2)cc1 | > 1000 | 90 | 
